Measured values as given in patent publication US10131652B2, “Pyrimidinyloxy benzene derivatives as herbicides” (E. I. DU PONT DE NEMOURS AND COMPANY, priority 2014, dated 2018).
Like-named read-outs stand apart in the source and are kept apart here.

Columns and labels:
Assay type in all cases: in vivo
[1] = test system: giant foxtail (Setaria faberii); experiment: Test B pre-/postemergence plant response; details: Setaria faberi, 240 h, 1000 g ai/ha, 0 to 100 scale (0 no effect, 100 complete control), read-out: Plant response rating, Foxtail, Giant
Procedure, shortened: (§1)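 Visual injury scores on a 0–100 scale (100 = complete control) relative to untreated plants, taken about 10 days post-treatment in greenhouse. Treatments were a directed preemergence soil spray and a postemergence spray at one- to two-leaf stage, using surfactant-containing solvent formulation.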

[2] = test system: pigweed (Amaranthus retroflexus); experiment: Test B pre-/postemergence plant response; details: Amaranthus retroflexus, 240 h, 1000 g ai/ha, 0 to 100 scale (0 no effect, 100 complete control), read-out: Plant response rating, Pigweed
Procedure, shortened: as §1

[3] = test system: wheat (Triticum aestivum); experiment: Test B pre-/postemergence plant response; details: Triticum aestivum, post-emergence, 240 h; Postemergence, 1000 g ai/ha; 0 to 100 scale (0 no effect, 100 complete control); read-out: Plant response rating, Wheat
Procedure, shortened: as §1

[4] = test system: barnyardgrass (Echinochloa crus-galli); experiment: Test B pre-/postemergence plant response; details: Echinochloa crus-galli, 240 h, 1000 g ai/ha, 0 to 100 scale (0 no effect, 100 complete control), read-out: Plant response rating, Barnyardgrass
Procedure, shortened: as §1

[5] = test system: corn (Zea mays); experiment: Test B pre-/postemergence plant response; details: Zea mays, post-emergence, 240 h; Postemergence, 1000 g ai/ha; 0 to 100 scale (0 no effect, 100 complete control)
Procedure, shortened: as §1

[6] = test system: waterhemp (common waterhemp, Amaranthus rudis); experiment: Test D pre-/postemergence plant response; details: Amaranthus tuberculatus; for pest or weed control at 16 g/ha: 16 g ai/ha; for pest or weed control at 31 g/ha: 31 g ai/ha; for pest or weed control at 62 g/ha: 62 g ai/ha; for pest or weed control at 125 g/ha: 125 g ai/ha
Excerpt: (§2) Seeds of plant species selected from blackgrass (Alopecurus myosuroides), Italian ryegrass (Lolium multiflorum), winter wheat (Triticum aestivum), galium (catchweed bedstraw, Galium aparine), corn (Zea mays), large (Lg) crabgrass (Digitaria sanguinalis), giant foxtail (Setaria faberii), johnsongrass (Sorghum halepense), lambsquarters (Chenopodium album), morningglory (Ipomoea coccinea), yellow nutsedge (Cyperus esculentus), pigweed (Amaranthus retroflexus), ragweed (common ragweed, Ambrosia elatior), soybean (Glycine max), bamyardgrass (Echinochloa crus-galli), oilseed rape (Brassica napus), waterhemp (common waterhemp, Amaranthus rudis), and velvetleaf (Abutilon theophrasti) were planted into a blend of loam soil and sand and treated preemergence with test chemicals formulated in a non-phytotoxic solvent mixture which included a surfactant. At the same time, plants selected from these crop and weed species and also kochia (Kochia scoparia), wild oat (Avena fatua), and chickweed (common chickweed, Stellaria media) were planted in pots containing Redi-Earth® planting medium (Scotts Company, 14111 Scottslawn Road, Marysville, Ohio 43041) comprising spaghnum peat moss, vermiculite, wetting agent and starter nutrients and treated with postemergence applications of test chemicals formulated in the same manner. Plants ranged in height from 2 to 18 cm (1- to 4-leaf stage) for postemergence treatments. Treated plants and controls were maintained in a greenhouse for 13 to 15 days, after which time all species were compared to controls and visually evaluated. Plant response ratings, summarized in Table D, are based on a scale of 0 to 100 where 0 is no effect and 100 is complete control. A dash (-) response means no test result.

[7] = test system: johnsongrass (Sorghum halepense); experiment: Test D pre-/postemergence plant response; details: Sorghum halepense; for pest or weed control at 16 g/ha: 16 g ai/ha; for pest or weed control at 31 g/ha: 31 g ai/ha; for pest or weed control at 62 g/ha: 62 g ai/ha; for pest or weed control at 125 g/ha: 125 g ai/ha
Excerpt: as §2

[8] = test system: soybean (Glycine max); experiment: Test D pre-/postemergence plant response; details: Glycine max; for plant injury at 16 g/ha: 16 g ai/ha; for plant injury at 31 g/ha: 31 g ai/ha; for plant injury at 62 g/ha: 62 g ai/ha; for plant injury at 125 g/ha: 125 g ai/ha
Excerpt: as §2

[9] = test system: winter wheat (Triticum aestivum); experiment: Test D pre-/postemergence plant response; details: Triticum aestivum; for plant injury at 16 g/ha: 16 g ai/ha; for plant injury at 31 g/ha: 31 g ai/ha; for plant injury at 62 g/ha: 62 g ai/ha; for plant injury at 125 g/ha: 125 g ai/ha
Excerpt: as §2

[10] = test system: lambsquarters (Chenopodium album); experiment: Test D pre-/postemergence plant response; details: Chenopodium album; for pest or weed control at 16 g/ha: 16 g ai/ha; for pest or weed control at 31 g/ha: 31 g ai/ha; for pest or weed control at 62 g/ha: 62 g ai/ha; for pest or weed control at 125 g/ha: 125 g ai/ha
Excerpt: as §2

[11] = test system: morningglory (Ipomoea coccinea); experiment: Test D pre-/postemergence plant response; details: Ipomoea; for pest or weed control at 16 g/ha: 16 g ai/ha; for pest or weed control at 31 g/ha: 31 g ai/ha; for pest or weed control at 62 g/ha: 62 g ai/ha; for pest or weed control at 125 g/ha: 125 g ai/ha
Excerpt: as §2

[12] = test system: velvetleaf (Abutilon theophrasti); experiment: Test D pre-/postemergence plant response; details: Abutilon theophrasti; for pest or weed control at 16 g/ha: 16 g ai/ha; for pest or weed control at 31 g/ha: 31 g ai/ha; for pest or weed control at 62 g/ha: 62 g ai/ha; for pest or weed control at 125 g/ha: 125 g ai/ha
Excerpt: as §2

[13] = test system: rice (Oryza sativa); experiment: Test C flooded paddy test plant response; details: Oryza sativa; Flood, 250 g ai/ha; scale of 0 to 100 where 0 is no effect and 100 is complete control; 13 to 15 days; read-out: Rice plant response rating
Procedure, shortened: (§3)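 Flooded-pot format, 3 cm water over soil maintained for the test duration; test compounds dispensed into the water at the 2-leaf stage. Greenhouse holding 13 to 15 days. Plants evaluated visually relative to untreated controls, 0 meaning no effect and 100 complete control.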

[14] = test system: small-flower umbrella sedge (Cyperus difformis); experiment: Test C flooded paddy test plant response; details: Cyperus difformis; Flood, 250 g ai/ha; scale of 0 to 100 where 0 is no effect and 100 is complete control; 13 to 15 days; read-out: Sedge, Umbrella plant response rating
Procedure, shortened: as §3

[15] = test system: barnyardgrass (Echinochloa crus-galli); experiment: Test C flooded paddy test plant response; details: Echinochloa crus-galli; Flood, 250 g ai/ha; scale of 0 to 100 where 0 is no effect and 100 is complete control; 13 to 15 days; read-out: Barnyardgrass plant response rating
Procedure, shortened: as §3

[16] = test system: ducksalad (Heteranthera limosa); experiment: Test C flooded paddy test plant response; details: Heteranthera limosa; Flood, 250 g ai/ha; scale of 0 to 100 where 0 is no effect and 100 is complete control; 13 to 15 days; read-out: Ducksalad plant response rating
Procedure, shortened: as §3

[17] = post-emergence, Postemergence, scale 0 to 100 (0 no effect, 100 complete control), read-out: Waterhemp plant response rating
[18] = post-emergence, Postemergence, scale 0 to 100, 0 no effect, 100 complete control, read-out: Plant response rating, Waterhemp
[19] = pre-emergence, Preemergence, scale 0 to 100 (0 no effect, 100 complete control), read-out: Plant response rating, Waterhemp
[20] = post-emergence, Postemergence, scale 0 to 100 (0 no effect, 100 complete control), read-out: Johnsongrass plant response rating
[21] = post-emergence, Postemergence, scale 0 to 100, 0 no effect, 100 complete control, read-out: Plant response rating, Johnsongrass
[22] = pre-emergence, Preemergence, scale 0 to 100 (0 no effect, 100 complete control), read-out: Plant response rating, Johnsongrass
[23] = post-emergence, Postemergence, scale 0 to 100 (0 no effect, 100 complete control), read-out: Soybean plant response rating
[24] = post-emergence, Postemergence, scale 0 to 100, 0 no effect, 100 complete control, read-out: Plant response rating, Soybean
[25] = pre-emergence, Preemergence, scale 0 to 100 (0 no effect, 100 complete control), read-out: Plant response rating, Soybean
[26] = post-emergence, Postemergence, scale 0 to 100 (0 no effect, 100 complete control), read-out: Wheat plant response rating
[27] = post-emergence, Postemergence, scale 0 to 100, 0 no effect, 100 complete control, read-out: Plant response rating, Wheat
[28] = pre-emergence, Preemergence, scale 0 to 100 (0 no effect, 100 complete control), read-out: Plant response rating, Wheat
[29] = post-emergence, Postemergence, scale 0 to 100 (0 no effect, 100 complete control), read-out: Lambsquarters plant response rating
[30] = post-emergence, Postemergence, scale 0 to 100, 0 no effect, 100 complete control, read-out: Plant response rating, Lambsquarters
[31] = pre-emergence, Preemergence, scale 0 to 100 (0 no effect, 100 complete control), read-out: Plant response rating, Lambsquarters
[32] = post-emergence, Postemergence, scale 0 to 100 (0 no effect, 100 complete control), read-out: Morningglory plant response rating
[33] = post-emergence, Postemergence, scale 0 to 100, 0 no effect, 100 complete control, read-out: Plant response rating, Morningglory
[34] = pre-emergence, Preemergence, scale 0 to 100 (0 no effect, 100 complete control), read-out: Plant response rating, Morningglory
[35] = post-emergence, Postemergence, scale 0 to 100 (0 no effect, 100 complete control), read-out: Velvetleaf plant response rating
[36] = post-emergence, Postemergence, scale 0 to 100, 0 no effect, 100 complete control, read-out: Plant response rating, Velvetleaf
[37] = pre-emergence, Preemergence, scale 0 to 100 (0 no effect, 100 complete control), read-out: Plant response rating, Velvetleaf

## Fc1cccc(Oc2ncc(Cl)cn2)c1-c1cc(C(F)F)on1 [Compound 55, 5-chloro-2-[2-[5-(difluoromethyl)-3-isoxazolyl]-3-fluorophenoxy]pyrimidine]
[1]; post-emergence, Postemergence
  pest or weed control at 1000 g/ha: 100%
[1]; pre-emergence, Preemergence
  pest or weed control at 1000 g/ha: 100%
[2]; post-emergence, Postemergence
  pest or weed control at 1000 g/ha: 100%
[2]; pre-emergence, Preemergence
  pest or weed control at 1000 g/ha: 100%
[3]
  plant injury at 1000 g/ha: 100%
[4]; post-emergence, Postemergence
  pest or weed control at 1000 g/ha: 100%
[4]; pre-emergence, Preemergence
  pest or weed control at 1000 g/ha: 100%
[5]
  Corn plant response rating (crop injury, 0 = no effect, 100 = complete kill) at 1000 g/ha: 100%
[6]; [17]
  pest or weed control at 16 g/ha: 85%
  pest or weed control at 31 g/ha: 90%
[6]; [18]
  pest or weed control at 62 g/ha: 98%
  pest or weed control at 125 g/ha: 100%
[6]; pre-emergence, Preemergence, read-out: Plant response rating (scale 0 to 100), Waterhemp
  pest or weed control at 125 g/ha: 100%
[6]; [19]
  pest or weed control at 16 g/ha: 100%
  pest or weed control at 31 g/ha: 100%
  pest or weed control at 62 g/ha: 100%
[7]; [20]
  pest or weed control at 16 g/ha: 5%
  pest or weed control at 31 g/ha: 5%
[7]; [21]
  pest or weed control at 62 g/ha: 10%
  pest or weed control at 125 g/ha: 15%
[7]; pre-emergence, Preemergence, read-out: Plant response rating (scale 0 to 100), Johnsongrass
  pest or weed control at 125 g/ha: 100%
[7]; [22]
  pest or weed control at 16 g/ha: 30%
  pest or weed control at 31 g/ha: 75%
  pest or weed control at 62 g/ha: 85%
[8]; [23]
  plant injury at 16 g/ha: 65%
  plant injury at 31 g/ha: 75%
[8]; [24]
  plant injury at 62 g/ha: 90%
  plant injury at 125 g/ha: 95%
[8]; pre-emergence, Preemergence, read-out: Plant response rating (scale 0 to 100), Soybean
  plant injury at 125 g/ha: 98%
[8]; [25]
  plant injury at 16 g/ha: 25%
  plant injury at 31 g/ha: 35%
  plant injury at 62 g/ha: 95%
[9]; [26]
  plant injury at 16 g/ha: 5%
  plant injury at 31 g/ha: 25%
[9]; [27]
  plant injury at 62 g/ha: 30%
  plant injury at 125 g/ha: 35%
[9]; pre-emergence, Preemergence, read-out: Plant response rating (scale 0 to 100), Wheat
  plant injury at 125 g/ha: 60%
[9]; [28]
  plant injury at 16 g/ha: 0%
  plant injury at 31 g/ha: 0%
  plant injury at 62 g/ha: 25%
[10]; [29]
  pest or weed control at 16 g/ha: 75%
  pest or weed control at 31 g/ha: 85%
[10]; [30]
  pest or weed control at 62 g/ha: 98%
  pest or weed control at 125 g/ha: 98%
[10]; pre-emergence, Preemergence, read-out: Plant response rating (scale 0 to 100), Lambsquarters
  pest or weed control at 125 g/ha: 98%
[10]; [31]
  pest or weed control at 16 g/ha: 100%
  pest or weed control at 31 g/ha: 100%
  pest or weed control at 62 g/ha: 100%
[11]; [32]
  pest or weed control at 16 g/ha: 70%
  pest or weed control at 31 g/ha: 70%
[11]; [33]
  pest or weed control at 62 g/ha: 80%
  pest or weed control at 125 g/ha: 85%
[11]; pre-emergence, Preemergence, read-out: Plant response rating (scale 0 to 100), Morningglory
  pest or weed control at 125 g/ha: 100%
[11]; [34]
  pest or weed control at 16 g/ha: 10%
  pest or weed control at 31 g/ha: 50%
  pest or weed control at 62 g/ha: 100%
[12]; [35]
  pest or weed control at 16 g/ha: 35%
  pest or weed control at 31 g/ha: 50%
[12]; [36]
  pest or weed control at 62 g/ha: 75%
  pest or weed control at 125 g/ha: 85%
[12]; pre-emergence, Preemergence, read-out: Plant response rating (scale 0 to 100), Velvetleaf
  pest or weed control at 125 g/ha: 100%
[12]; [37]
  pest or weed control at 16 g/ha: 90%
  pest or weed control at 31 g/ha: 100%
  pest or weed control at 62 g/ha: 100%
[13]
  plant injury at 250 g/ha: 25%
[14]
  pest or weed control at 250 g/ha: 90%
[15]
  pest or weed control at 250 g/ha: 25%
[16]
  pest or weed control at 250 g/ha: 100%
